Data reported in US12678463B2, “Activated mesenchymal stem cells for treating limb ischemia” (Cellin Technologies OÜ, priority 2019, dated 2026).

What was measured:
Type in all cases: cell-based, human
[1] = system: AdMSCs; experiment: Cell cycle analysis by propidium iodide staining and flow cytometry; details: 24 h after treatment; for percentage of cells in G0/G1 phase: non-treated control 82%, paracetamol 4.4 mM, diclofenac 10 μM, metamizole 10 μM, ketoprofen 50 μM, prednisolone 0.1 μM; for percentage of cells in G2/M cell cycle phase: vs non-treated control
Description: FIG. 2. Cell cycle analysis of control and AIDs-treated AdMSCs. AIDs-treated and control AdMSCs were stained with propidium iodide (PI) 24 h after treatments and analyzed using flow cytometry by BD Accuri C6.
The percentage of cells in G0/1 phase was lower in the cultures treated with metamizole (Analgin™) (65%) and paracetamol (71%), whereas the percentage of cells in G2/M cell cycle phase was increased in these cultures (FIG. 2).

[2] = system: AdMSCs; experiment: ELISA of secreted inflammatory factors in culture media of AdMSCs; details: for secreted IL6 concentration / secreted CCL2 concentration / secreted IL-1RN concentration / secreted CXCL8 concentration: AIDs-treated 24 h; for secreted IL6 concentration: control 40 ± 2; for secreted CCL2 concentration: control 96 ± 3.2; for secreted IL-1RN concentration: control 2.3 ± 0.03; for secreted CXCL8 concentration: control 277 ± 12.7
[3] = system: LPS-stimulated AdMSCs; experiment: RT-qPCR of inflammatory gene mRNA in LPS-stimulated AIDs-treated AdMSCs; details: 24 hours exposure, vs LPS-treated cells
Description: FIG. 4. Relative mRNA expression of inflammatory genes in LPS-stimulated and AIDs-treated for 24 h AdMSCs represented as heat map. Expression levels were measured in triplicates by RT-qPCR and normalized with GAPDH mRNA expression levels. Data from LPS-stimulated AIDs-treated AdMSCs were calculated as a relative fold difference compared to LPS-treated cells and converted to the log scale. The quantitative changes in gene expression are represented by shading: darker shade indicates up-regulation, whereas lighter shade indicates down-regulation. Expression data were visualized using GENE-E software.
FIG. 6. Heat map of the expression profile of inflammatory genes in LPS-stimulated and AIDs-treated AdMSCs. Inflammatory genes mRNA expression levels of LPS-stimulated and AIDs-treated for 48 h (A) and 72 h (B) AdMSCs were calculated as a fold difference compared to LPS-treated AdMSCs and represented as heat maps. Expression levels of inflammatory gene mRNAs were measured in triplicates by RT-qPCR, normalized with GAPDH mRNA levels and converted to the log scale. Positive values (darker shade) indicate higher expression, and negative values (lighter shade) lower expression relatively to the control LPS-treated AdMSCs.
Effects of AIDs on mRNA expression of inflammatory cytokines in AdMSCs were analyzed using RT-qPCR technique. Analyses results were visualized as a heat map graph using GENE-E platform (FIG. 4). Short-term treatment of AdMSCs by AIDs affected the expression of inflammatory cytokines. […] Expression of pro-inflammatory cytokines CCL2, CCL3, TNF, IL6, ILIA and ILIB was suppressed by ketoprofen and metamizole (Analgin™) treatments.
Effects of repeated AIDs treatments (48 and 72 h) on mRNA expression of cytokines in AdMSCs were analyzed using RT-qPCR technique. Differential expression of cytokine genes is represented as a heat map in FIG. 6. […] Upon exposure to various drugs, complex expression pattern of pro- and anti-inflammatory factors were observed. […] However, the stable induced expression of anti-inflammatory factors (IL4, TNFAIP6, IDO1) was not observed.

[4] = system: AdMSCs; experiment: ELISA of secreted inflammatory factors in culture media of AdMSCs; details: for effect on CCL2 level / effect on CXCL8 level / effect on IL6 level: LPS-stimulated AdMSC cultures, 24 h; for secreted IL-1RN concentration / secreted IL6 concentration / secreted CXCL8 concentration / secreted CCL2 concentration: LPS-stimulated, AIDs-treated 24 h; for secreted IL-1RN concentration: control + LPS 61 ± 18; for secreted IL6 concentration: control + LPS 210 ± 22; for secreted CXCL8 concentration: control + LPS 2373 ± 109; for secreted CCL2 concentration: control + LPS 461 ± 19.9; for IL-1RN level in culture media over time / IL6 level in culture media over time: LPS-treated cultures, single treatment; for IL-1RN level in culture media over time: serum-deficient, 24, 48 and 72 h; for IL6 level in culture media over time: serum-deficient, 24, 48 and 72 h (prednisolone: at 72 h)
Description: FIG. 5. Changes of inflammatory factors in culture media. Secreted IL6, CXCL8, CCL2 and IL1RN levels were measured from the conditional media of control, LPS-stimulated, and LPS-stimulated and paracetamol or prednisolone-treated AdMSCs by ELISA at 24, 48 and 72 h and represented as normalized to control 24 h probe.
To mimic inflammatory conditions, AdMSCs were exposed to lipopolysaccharide (LPS) prior to AIDs treatments. […] Then, LPS-treated AdMSCs were exposed to AIDs to study their effect on cytokines in inflammatory conditions.

[5] = system: AdMSCs; experiment: RT-qPCR of angiogenic marker mRNA in AIDs-treated AdMSCs; details: 24 h treatment, relative to untreated AdMSCs, normalized with GAPDH
Description: VEGFA, HGF, bFGF and TEK mRNA expression levels in AdMSCs treated with AIDs for 24 h were measured in triplicates by RT-qPCR and normalized with GAPDH mRNA expression levels. Data from AIDs-treated cells were calculated relatively to control untreated AdMSCs and results are represented in a log scale. Positive values indicated increased and negative values decreased mRNA levels compared to control untreated cells.
Numerous soluble factors produced by MSCs are involved in the regulation of angiogenesis and neovascularisation in vivo (Estrada et al., 2009). […] The effect of the AIDs on expression of angiogenic factors in AdMSCs was analyzed. Different AIDs affected the expression of angiogenic factors differently either stimulating or suppressing their expression.

[6] = system: AdMSCs; experiment: WST-1 metabolic activity assay of AdMSCs treated with anti-inflammatory drugs; details: first 24 hours; metamizole 10 μM
Description: AdMSCs metabolic activity was measured at 1, 2, 3 and 5 days after the treatments.
During the first 48 hours, all analyzed AIDs stimulated the metabolic activity of AdMSCs.

[7] = standard culture conditions, no LPS
[8] = LPS-treated cultures, single treatment, serum-deficient, 24, 48 and 72 h

SMILES	percentage of cells in G0/G1 phase [1] [%]	secreted IL6 concentration ([2]; no LPS) [pg/mL]	secreted CCL2 concentration ([2]; no LPS) [pg/mL]	effect on synthesis and secretion of immunomodulatory factors [2, 7]	TGFβ1 and TGFβ3 mRNA expression [3]	TGFβ2 mRNA expression [3]	effect on CCL2 level [4]	effect on CXCL8 level [4]	effect on IL6 level [4]	secreted IL-1RN concentration [4] [pg/mL]	secreted IL6 concentration [4] [pg/mL]	secreted CXCL8 concentration [4] [pg/mL]	HGF mRNA expression [5]	TEK mRNA expression [5]	VEGFA mRNA expression [5]	bFGF mRNA expression [5]	secreted IL-1RN concentration ([2]; no LPS) [pg/mL]	secreted CXCL8 concentration ([2]; no LPS) [pg/mL]	expression of pro-inflammatory cytokines CCL2, CCL3, TNF, IL6, ILIA and ILIB (mRNA) [3]	secreted CCL2 concentration [4] [pg/mL]	further results
O=C(O)Cc1ccccc1Nc1c(Cl)cccc1Cl [diclofenac]	81	50 ± 1	64 ± 8.4	minor effect	suppressed	stimulated	no effect	stimulated	stimulated	17 ± 2	390 ± 4	2807 ± 361	no effect	no effect	no effect	no effect	–	–	–	–	–
CC(C(=O)O)c1cccc(C(=O)c2ccccc2)c1 (centres unmarked) [ketoprofen]	80	10 ± 1	165 ± 23.4	minor effect	–	–	no effect	stimulated	stimulated	12 ± 0.5	440 ± 143	2509 ± 68	up-regulation	up-regulation	up-regulation	up-regulation	0	301 ± 0.3	suppressed	451 ± 31.8	–
Cc1c(N(C)CS(=O)(=O)O)c(=O)n(-c2ccccc2)n1C [metamizole (Analgin™), metamizole]	65	30 ± 1	109 ± 3.2	minor effect	–	–	Inhibitory effect	–	–	12 ± 1	180 ± 29	1816 ± 121	up-regulation	up-regulation	up-regulation	up-regulation	3.9 ± 0.03	341 ± 4.7	suppressed	313 ± 43.9	percentage of cells in G2/M cell cycle phase [1]: increased; effect on IL1RN expression ([2]; LPS-stimulated AdMSC cultures, 24 h): Inhibitory effect; cellular metabolism (WST-1 metabolic activity) [6]: significantly stimulated
CC(=O)Nc1ccc(O)cc1 [paracetamol]	71	0	8 ± 0.4	minor effect	suppressed	stimulated	–	significantly reduced	significantly reduced	33 ± 9	90 ± 14	623 ± 41	inhibited	strongly suppressed	inhibited	induced	11.0 ± 0.65	11 ± 0.1	–	270 ± 29.9	percentage of cells in G2/M cell cycle phase [1]: increased; CCL2 level in culture media over time [2, 8]: lowered; CXCL8 level in culture media over time [2, 8]: no significant effects; CCL2 level in culture media compared to untreated cells [2, 7]: significant reduction; CXCL8/IL8 level in culture media compared to untreated cells [2, 7]: significant reduction; IL6 level in culture media compared to untreated cells [2, 7]: significant reduction; IL-1RN level in culture media over time [4]: no significant effects; IL6 level in culture media over time [4]: no significant effects
C[C@]12C=CC(=O)C=C1CC[C@@H]1[C@@H]2[C@@H](O)C[C@@]2(C)[C@H]1CC[C@]2(O)C(=O)CO [prednisolone]	77	30 ± 2	100 ± 12.2	minor effect	–	–	–	significantly reduced	significantly reduced	33 ± 2	50 ± 12	402 ± 51	inhibited	opposite effect	inhibited	opposite effect	7.3 ± 0.20	35 ± 0.1	–	314 ± 23.2	CCL2 level in culture media over time [2, 8]: significantly stimulated; IL-1RN level in culture media over time [4]: inhibited; IL6 level in culture media over time [4]: moderately induced
